Patent publication US10723707B2, “Heterocyclic substituted 2-amino quinazoline derivatives for the treatment of viral infections” (JANSSEN SCIENCES IRELAND UNLIMITED COMPANY, priority 2012, dated 2020)

Key:
Assay type in all cases: cell-based
human TLR7 = target: T1, human TLR7 (Homo sapiens, UniProt Q9NYK1); test: TLR7 cellular NFκB-luc reporter assay in transiently transfected HEK293 cells; conditions: lowest effective concentration, 6 hours incubation
T1 construct: expressed in transfected cells; host or cells: HEK293
T1 sequence (Q9NYK1 27-1049): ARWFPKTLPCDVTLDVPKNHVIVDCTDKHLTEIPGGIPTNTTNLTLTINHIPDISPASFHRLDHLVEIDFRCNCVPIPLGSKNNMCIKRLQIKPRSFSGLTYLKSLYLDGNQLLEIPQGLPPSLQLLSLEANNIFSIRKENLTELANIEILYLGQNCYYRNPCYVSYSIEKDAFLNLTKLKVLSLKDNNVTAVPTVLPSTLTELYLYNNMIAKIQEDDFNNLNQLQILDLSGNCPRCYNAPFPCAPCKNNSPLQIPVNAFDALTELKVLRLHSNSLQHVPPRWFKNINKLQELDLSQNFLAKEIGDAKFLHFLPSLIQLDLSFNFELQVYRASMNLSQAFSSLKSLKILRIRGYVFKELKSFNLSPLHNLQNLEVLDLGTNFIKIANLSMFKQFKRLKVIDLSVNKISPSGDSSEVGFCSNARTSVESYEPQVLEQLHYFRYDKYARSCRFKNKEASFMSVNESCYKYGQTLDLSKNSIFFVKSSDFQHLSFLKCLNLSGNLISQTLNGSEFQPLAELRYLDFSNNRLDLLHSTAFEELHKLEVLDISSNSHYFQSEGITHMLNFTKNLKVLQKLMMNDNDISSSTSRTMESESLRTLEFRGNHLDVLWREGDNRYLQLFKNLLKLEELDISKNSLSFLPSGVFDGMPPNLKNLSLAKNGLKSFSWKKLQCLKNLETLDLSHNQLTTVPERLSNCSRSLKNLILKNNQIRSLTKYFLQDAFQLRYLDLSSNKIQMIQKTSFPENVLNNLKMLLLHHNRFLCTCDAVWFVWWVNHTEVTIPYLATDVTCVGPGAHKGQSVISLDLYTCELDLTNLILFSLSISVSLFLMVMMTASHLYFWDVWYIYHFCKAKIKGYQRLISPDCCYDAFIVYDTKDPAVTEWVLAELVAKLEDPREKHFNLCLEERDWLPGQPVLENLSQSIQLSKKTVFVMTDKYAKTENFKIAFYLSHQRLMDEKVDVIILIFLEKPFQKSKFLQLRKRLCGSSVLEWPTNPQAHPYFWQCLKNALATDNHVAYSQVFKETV
Protocol: (§1) The ability of compounds to activate human TLR7 and/or TLR8 was assessed in a cellular reporter assay using HEK293 cells transiently transfected with a TLR7 or TLR8 expression vector and NFκB-luc reporter construct.
(§2) Briefly, HEK293 cells were grown in culture medium (DMEM supplemented with 10% FCS and 2 mM Glutamine). For transfection of cells in 15 cm dishes, cells were detached with Trypsin-EDTA, transfected with a mix of CMV-TLR7 or TLR8 plasmid (1700 ng), NFκB-luc plasmid (850 ng) and a transfection reagent and incubated for 48 h at 37° C. in a humidified 5% CO2 atmosphere. Transfected cells were then washed in PBS, detached with Trypsin-EDTA and resuspended in medium to a density of 1.25×10^5 cells/mL. Forty microliters of cells were then dispensed into each well in 384-well plates, where 200 nL of compound in 100% DMSO was already present. Following 6 hours incubation at 37° C., 5% CO2, the luciferase activity was determined by adding 15 μL of Steady Lite Plus substrate (Perkin Elmer) to each well and readout performed on a ViewLux ultraHTS microplate imager (Perkin Elmer). Dose response curves were generated from measurements performed in quadruplicates. Lowest effective concentrations (LEC) values, defined as the concentration that induces an effect which is at least two fold above the standard deviation of the assay, were determined for each compound.

human TLR8 = target: T2, human TLR8 (Homo sapiens, UniProt Q9NR97); test: TLR8 cellular NFκB-luc reporter assay in transiently transfected HEK293 cells; conditions: lowest effective concentration, 6 hours incubation
T2 construct: expressed in transfected cells; host or cells: HEK293
T2 sequence (Q9NR97 27-1041): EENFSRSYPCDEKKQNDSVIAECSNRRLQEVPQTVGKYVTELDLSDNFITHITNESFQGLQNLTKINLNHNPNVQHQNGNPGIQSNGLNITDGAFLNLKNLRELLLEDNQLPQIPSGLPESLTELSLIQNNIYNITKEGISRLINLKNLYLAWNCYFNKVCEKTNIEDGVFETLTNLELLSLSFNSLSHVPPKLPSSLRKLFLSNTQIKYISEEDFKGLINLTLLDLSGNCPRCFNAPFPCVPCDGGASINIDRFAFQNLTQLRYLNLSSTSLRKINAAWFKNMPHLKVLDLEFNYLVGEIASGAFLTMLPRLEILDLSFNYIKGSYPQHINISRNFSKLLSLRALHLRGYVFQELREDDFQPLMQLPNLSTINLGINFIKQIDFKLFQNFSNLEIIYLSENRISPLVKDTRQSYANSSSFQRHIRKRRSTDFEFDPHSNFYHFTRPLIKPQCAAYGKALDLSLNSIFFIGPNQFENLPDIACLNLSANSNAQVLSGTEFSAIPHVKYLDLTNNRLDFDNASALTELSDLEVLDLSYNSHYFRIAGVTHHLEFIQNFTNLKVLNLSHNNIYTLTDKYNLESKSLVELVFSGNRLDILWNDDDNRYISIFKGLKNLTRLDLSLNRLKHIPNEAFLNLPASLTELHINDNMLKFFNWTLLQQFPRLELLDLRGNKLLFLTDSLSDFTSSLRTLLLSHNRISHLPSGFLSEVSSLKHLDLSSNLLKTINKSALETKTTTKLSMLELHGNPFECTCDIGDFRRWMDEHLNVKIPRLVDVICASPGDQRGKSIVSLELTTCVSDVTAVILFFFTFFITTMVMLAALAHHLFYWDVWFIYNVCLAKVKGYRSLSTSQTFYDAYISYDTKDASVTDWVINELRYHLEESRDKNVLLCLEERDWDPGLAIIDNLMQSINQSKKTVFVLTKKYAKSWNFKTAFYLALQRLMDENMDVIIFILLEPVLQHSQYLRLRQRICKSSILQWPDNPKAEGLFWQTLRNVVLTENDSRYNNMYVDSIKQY
Protocol: as §1, §2

[1] = tested on: interferon-stimulated responsive elements (ISRE); test: Activation of ISRE promoter elements in HEK-ISREluc cells by conditioned media from PBMC; conditions: Homo sapiens, compound concentration applied to PBMCs, supernatant transferred to HEK-ISREluc cells, 24 hours, read-out: HEK-ISRE luc (LEC)
Protocol: The potential of compounds to induce IFN-I was also evaluated by measuring the activation of interferon-stimulated responsive elements (ISRE) by conditioned media from PBMC. The ISRE element of sequence GAAACTGAAACT (SEQ ID: 1) is highly responsive to the STAT1-STAT2-IRF9 transcription factor, activated upon binding of IFN-I to their receptor IFNAR (Clontech, PT3372-5W). The plasmid pISRE-Luc from Clontech (ref. 631913) contains 5 copies of this ISRE element, followed by the firefly luciferase ORF. A HEK293 cell line stably transfected with pISRE-Luc (HEK-ISREluc) was established to profile the conditioned PBMC cell culture media.
Briefly, PBMCs were prepared from buffy coats of at least two donors using a standard Ficoll centrifugation protocol. Isolated PBMCs were resuspended in RPMI medium supplemented with 10% human AB serum and 2×10^5 cells/well were dispensed into 384-well plates containing compounds (70 μL total volume). After overnight incubation, 10 μL of supernatant was transferred to 384-well plates containing 5×10^3 HEK-ISREluc cells/well in 30 μL (plated the day before). Following 24 hours of incubation, activation of the ISRE elements was measured by assaying luciferase activity using 40 μL/well Steady Lite Plus substrate (Perkin Elmer) and measured with ViewLux ultraHTS microplate imager (Perkin Elmer). The stimulating activity of each compound on the HEK-ISREluc cells was reported as LEC value, defined as the compound concentration applied to the PBMCs resulting in a luciferase activity at least two fold above the standard deviation of the assay. The LEC in turn indicates the degree of ISRE activation on transfer of a defined amount of PBMC culture medium. Recombinant interferon α-2a (Roferon-A) was used as a standard control compound.

Row | SMILES | Human TLR 7 (LEC) (human TLR7) [µM] | Human TLR 8 (LEC) (human TLR8) [µM] | minimal effective concentration [1] [µM]
1 | COc1cccc2nc(N)nc(N[C@H](C)c3cccc(C)n3)c12 (single isomer, unassigned) [Compound 20] | 1.46 | >25 | 0.62
2 | Cc1cc(CNc2nc(N)nc3cccc(F)c23)no1 [Compound 11] | 0.45 | 3.09 | 0.082
3 | Nc1nc(N[C@@H](CO)[C@@H](O)c2ccccc2)c2ccccc2n1 [Compound 17] | 0.83 | 5.51 | 0.16
4 | C[C@@H](Nc1nc(N)nc2cc(Cl)ccc12)c1ccccn1 (single isomer, unassigned) [Compound 7] | 0.82 | 16.4 | 0.38
5 | COc1ccc(F)c2nc(N)nc(NCc3cc(C)on3)c12 [Compound 31] | 0.74 | >25 | 0.46
6 | C[C@@H](Nc1nc(N)nc2c(F)cccc12)c1ccccn1 (single isomer, unassigned) [Compound 9] | 5.21 | >25 | 1.68
7 | COc1ccc2c(N[C@H](C)c3ccccn3)nc(N)nc2c1 (single isomer, unassigned) [Compound 6] | 3.75 | >25 | 0.64
8 | C[C@@H](Nc1nc(N)nc2cc(F)ccc12)c1ccccn1 (single isomer, unassigned) [Compound 4] | 0.92 | 19.8 | 0.59
9 | COc1cccc2nc(N)nc(N[C@H](C)c3cnn(C)c3)c12 (single isomer, unassigned) [Compound 16] | 2.44 | 9.14 | 0.55
10 | CC(Nc1nc(N)nc2cc(C(=O)N(C)C)ccc12)c1ccccn1 (stereo not drawn) [Compound 23] | 6.67 | >25 | 1.62
11 | CNC(=O)c1ccc2c(NC(C)c3ccccn3)nc(N)nc2c1 (stereo not drawn) [Compound 22] | 14.7 | >25 | 2.2
12 | COc1cccc2nc(N)nc(NCc3cc(C)on3)c12 [Compound 12] | 0.047 | 1.94 | 0.036
